Measured values reported in ChEMBL document CHEMBL3044704, “Synthesis, characterization, antioxidant, and anticancer studies of 6-[3-(4-chlorophenyl)-1H-pyrazol-4-yl]-3-[(2-naphthyloxy)methyl][1,2,4]triazolo[3,4-b][1,3,4]thiadiazole in HepG2 cell lines” (Med Chem Res, 2011).
Values after ≈ are worked out from the molar mass of the structure shown. Active and inactive are the calls of the source. The rule behind the calls is not given here.

How the values were obtained:
[1] = system: Radical scavenging activity; experiment: Antioxidant activity assessed as inhibition of DPPH radical production after 20 min by spectrophotometric analysis; assay type: functional
[2] = Antioxidant activity assessed as inhibition of ABTS radical production after 20 min by spectrophotometric analysis; assay type: functional
HepG2 [3] = experiment: Cytotoxicity against Homo sapiens (human) HepG2 cells assessed as inhibition of [3H]thymidine incorporation incubated for 3 hr prior to [3h]thymidine incorporation measured after 2 hr by liquid scintillation counting; assay type: functional, cell-based
HepG2 [4] = experiment: Induction of cell cycle arrest in Homo sapiens (human) HepG2 cells assessed as subG1 phase cells at 0.06 ug/ml after 24 hr by flow cytometric analysis (reference value: 3.57 +/- 0.03%); assay type: functional
HepG2 [5] = experiment: Induction of cell cycle arrest in Homo sapiens (human) HepG2 cells assessed as G1 phase cells at 0.06 ug/ml after 24 hr by flow cytometric analysis (reference value: 50.68 +/- 1.42%); assay type: functional
HepG2 [6] = experiment: Induction of cell cycle arrest in Homo sapiens (human) HepG2 cells assessed as S phase cells at 0.06 ug/ml after 24 hr by flow cytometric analysis (reference value: 32.84 +/- 1.06%); assay type: functional
HepG2 [7] = experiment: Induction of cell cycle arrest in Homo sapiens (human) HepG2 cells assessed as S phase cells at 0.08 ug/ml after 24 hr by flow cytometric analysis (reference value: 32.84 +/- 1.06%); assay type: functional
HepG2 [8] = experiment: Induction of cell cycle arrest in Homo sapiens (human) HepG2 cells assessed as G2/M phase cells at 0.08 ug/ml after 24 hr by flow cytometric analysis (reference value: 12.92 +/- 0.27%); assay type: functional
HepG2 [9] = experiment: Induction of cell cycle arrest in Homo sapiens (human) HepG2 cells assessed as G1 phase cells at 0.08 ug/ml after 24 hr by flow cytometric analysis (reference value: 50.68 +/- 1.42%); assay type: functional
HepG2 [10] = experiment: Induction of cell cycle arrest in Homo sapiens (human) HepG2 cells assessed as increase in subG1 phase cells after 24 hr by flow cytometric analysis; assay type: functional, cell-based
HepG2 [11] = experiment: Cytotoxicity against Homo sapiens (human) HepG2 cells after 24 hr by MTT assay; assay type: functional, cell-based; settings: HepG2, 24 h
HepG2 [12] = experiment: Induction of cell cycle arrest in Homo sapiens (human) HepG2 cells assessed as G2/M phase cells at 0.06 ug/ml after 24 hr by flow cytometric analysis (reference value: 12.92 +/- 0.27%); assay type: functional
HepG2 [13] = experiment: Cytotoxicity against Homo sapiens (human) HepG2 cells assessed as chromatin condensation after 24 hr by Hoechst-staining method; assay type: functional, cell-based
HepG2 [14] = experiment: Induction of cell cycle arrest in Homo sapiens (human) HepG2 cells assessed as subG1 phase cells at 0.08 ug/ml after 24 hr by flow cytometric analysis (reference value: 3.57 +/- 0.03%); assay type: functional

Row | SMILES | IC50 [1] | inhibition [2] | inhibition (HepG2 [3]) | Activity (HepG2 [4]) | Activity (HepG2 [5]) | Activity (HepG2 [6]) | Activity (HepG2 [7]) | Activity (HepG2 [8]) | Activity (HepG2 [9]) | Activity (HepG2 [10]) | IC50 (HepG2 [11]) | Activity (HepG2 [12]) | Activity (HepG2 [13]) | Activity (HepG2 [14])
1 | O=C1O[C@H]([C@@H](O)CO)C(O)=C1O [ASCORBIC ACID] | 1.46 µg/mL (≈ 8.29 µM) | Active | – | – | – | – | – | – | – | – | – | – | – | –
2 | Clc1ccc(-c2n[nH]cc2-c2nn3c(COc4ccc5ccccc5c4)nnc3s2)cc1 | 1.023 µg/mL (≈ 2.23 µM) | Active | Dose-dependent effect | 4% | 56.59% | 28.82% | 23.68% | 11.33% | 52.65% | Dose-dependent effect | 0.8 µg/mL (≈ 1.74 µM) | 10.58% | Dose-dependent effect | 12.33%
